Laboratory results published in PubChem BioAssay AID624394 (The Scripps Research Institute Molecular Screening Center, 2012).

Biological target: Photoreceptor-specific nuclear receptor (Homo sapiens) (UniProt Q9Y5X4)
Assay: concentration-response of NR2E3 activators – cell-based, luminescence, luciferase reporter, dose response (AID 624394)

Chain of Photoreceptor-specific nuclear receptor (Homo sapiens) (Q9Y5X4 whole entry, looked up): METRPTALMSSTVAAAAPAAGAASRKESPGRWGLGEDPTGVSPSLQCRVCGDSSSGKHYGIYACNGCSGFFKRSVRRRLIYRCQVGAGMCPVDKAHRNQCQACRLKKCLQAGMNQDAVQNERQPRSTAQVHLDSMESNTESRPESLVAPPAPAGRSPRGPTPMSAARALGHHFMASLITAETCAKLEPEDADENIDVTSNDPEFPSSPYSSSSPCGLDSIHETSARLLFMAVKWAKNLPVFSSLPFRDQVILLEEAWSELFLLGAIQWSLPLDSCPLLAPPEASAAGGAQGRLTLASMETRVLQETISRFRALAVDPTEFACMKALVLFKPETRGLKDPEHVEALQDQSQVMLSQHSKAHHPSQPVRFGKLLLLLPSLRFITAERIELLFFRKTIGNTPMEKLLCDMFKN

CCOP(=O)(CCP(=O)(OCC)OCC)OCC.C[CH2][Sn]([Cl])([Cl])[CH2]C
IC50: 478 nM
